Earlier results on one compound are cited in patent EP4810529A1, “1,1-DICYANOETHYLENE-CONTAINING COMPOSITION, CURED PRODUCT, LAMINATE, AND METHOD FOR PRODUCING 1,1-DICYANOETHYLENE-CONTAINING COMPOSITION” (Kuraray Co., Ltd., priority 2023, dated 2025).

For this series the following is noted: logarithmic acid dissociation constant, room temperature, aqueous system, first stage.

For the compound `O=[N+]([O-])O` [nitric acid], the pKa is recorded as -1.3.
